Experimental data taken from patent US12043674B2, “Synthetic cyclic peptides and methods of preparation and use thereof” (Auburn University, priority 2020, dated 2024).
Entries after “also recorded” stand apart in the source; their conditions may differ. Ends that are not written are not given here.

Assays:
[1] = Stability of 4-imidazolidinone cyclic peptide under different pH conditions (hydrolysis/degradation, HPLC); type: physicochemical; conditions: 10 mM phosphate buffer, pH 3.5, 5.5, 7.5, 8.5, 10.5, room temperature, up to 24 h
Protocol: FIG. 22, comprising FIG. 22A through FIG. 22D, depicts representative effects of 4-imidazolidinone in cyclic peptides. FIG. 22A depicts representative VT-NMR spectra of head-to-tail 4-imidazolidinone cyclic peptide 4a in aqueous solutions. FIG. 22B depicts representative turn structure of 4-imidazolidinone cyclic peptide 4a obtained by running ForceGen (Jain A N et al., 2019, J. Comput.-Aided Mol. Des., 33:531) with NMR constraints. […] Cyclic peptide cyc(NVGPFEY) (SEQ ID NO: 19) 2f (2.5 mg) was dissolved in H2O to form a stock solution (500 μL, conc. 7 mM). 100 μL of the stock was added to 400 μL of sodium phosphate buffer (10 mM) at the following pH values: 3.5, 5.5, 7.5, 8.5, 10.5 (total conc. 1.4 mM). The reactions were shaken at room temperature. Samples were analyzed by injecting them in HPLC after regular intervals of time. […] FIG. 22D depicts representative proteolytic stability of 4-imidazolidinone cyclic peptide 2a as compared to its linear counterpart.
The stability of cyclic peptides is a major concern, for pharmaceutical applications. To evaluate the stability of a 4-imidazolidinone cyclic peptide, cyclic peptide cyc(NVGPFEY) (SEQ ID NO: 19) 2f was incubated under different pH conditions.

[2] = CyClick: N-terminal amine condenses with side-chain or C-terminal aldehyde (or ketone) to a cyclic imine, then the residue-2 amide N attacks to give a 4-imidazolidinone; DMAP (7 equiv); conditions: H2O/DMF 1:1, 5.0 mM, 25.0 °C
[3] = target: chymotrypsin (Bos taurus, UniProt P00766); assay: Enzymatic degradation study: proteolytic stability on incubation with chymotrypsin (HPLC, LCMS); type: in vitro ADME; conditions: for remaining at 5 min, 1.5 mM / remaining at 0.25 h, 1.5 mM / remaining at 0.5 h, 1.5 mM / remaining at 0.75 h, 1.5 mM / remaining at 1 h, 1.5 mM / remaining at 1.5 h, 1.5 mM / remaining at 2 h, 1.5 mM / remaining at 8 h, 1.5 mM: chymotrypsin (isolated protease) in Tris buffer, read-out: enzyme degradation studies, peptide at time point; for remaining at 5 min, 1.5 mM / remaining at 0.25 h, 1.5 mM / remaining at 0.5 h, 1.5 mM / remaining at 0.75 h, 1.5 mM / remaining at 1 h, 1.5 mM / remaining at 1.5 h, 1.5 mM / remaining at 2 h, 1.5 mM / remaining at 8 h, 1.5 mM / enzyme degradation studies, peptide at time point: chymotrypsin, 10 mM Tris buffer pH 7.5, peptide 1.5 mM; for remaining at 0.25 h, 1.5 mM: time 15 min; for remaining at 0.5 h, 1.5 mM: time 30 min; for remaining at 0.75 h, 1.5 mM: time 45 min; for remaining at 1 h, 1.5 mM: time 60 min; for remaining at 1.5 h, 1.5 mM: time 90 min; for remaining at 2 h, 1.5 mM: time 120 min; for remaining at 8 h, 1.5 mM: time 480 min; for enzyme degradation studies, peptide at time point: time 0 min
Protocol: FIG. 25, comprising FIG. 25A through FIG. 25C, depicts representative enzymatic Degradation Studies. Linear peptide AVGPFEY (SEQ ID NO: 13) and cyclic peptide cyc(AVGPFEY) (SEQ ID NO: 13) 2a were individually dissolved in 10 mM Tris buffer pH 7.5 (final conc. 1.5 mM). A chymotrypsin stock solution was created by the addition of 1 mg chymotrypsin in 100 μL CaCl2 (0.01 M), 100 μL tris buffer (0.1 M pH 7.5), 100 μL HCl (1 mM). 10 μL of the chymotrypsin stock solution was added to both linear peptide AVGPFEY (SEQ ID NO: 13) and cyclic peptide cyc(AVGPFEY) (SEQ ID NO: 13) 2a solutions. Samples (100 μL) were taken after regular intervals of time from both linear and cyclic peptide solutions. 100 μL of each sample was quenched with 400 μL of frozen water and solutions were frozen at −80° C. at the following time intervals: 0 min, 5 min, 15 min, 30 min, 45 min, 60 min, 90 min, 120 min, and 480 min. Each sample was lyophilized and analyzed using HPLC and LCMS. FIG. 25A depicts a schematic representation of the enzyme degradation of cyclic peptide cyc(AVGPFEY) (SEQ ID NO: 13) 2a. FIG. 25B depicts a schematic representation of the enzyme degradation of linear peptide 1a. FIG. 25C depicts representative HPLC data of various time aliquots of the enzyme degradation of linear peptide 1a.
To evaluate the potential of 4-imidazolidinone cyclic peptides for biological applications, the proteolytic stability of a cyclic peptide cyc(AVGPFEY) (SEQ ID NO: 13) 2a in comparison with its linear counterpart AVGPFEY (SEQ ID NO: 13) was examiner. Linear peptide AVGPFEY ID NO: 13) and cyclic peptide cyc(AVGPFEY) (SEQ ID NO: 13) 2a were incubated with chymotrypsin, which hydrolyzes peptide bonds at the C-terminal side of aromatic residues, such as Phe.

[4] = as above; type: in vitro ADME; conditions: chymotrypsin (isolated protease) in Tris buffer, pH 7.5; up to 24 h; HPLC and MS analysis; read-out: cleavage observed in the presence of chymotrypsin

## cyc(Asn-Val-Gly-Pro-Phe-Glu)-Tyr (NVGPFEY; not fully specified (residue 6, bridges); printed as cyc(Asn-Val-Gly-Pro-Phe-Glu)-Tyr; also: Glu side-chain aldehyde, bridge at N, other end not in the chain) [2f]
[1]
  resistance to hydrolysis/degradation under different pH conditions: remained unchanged; also recorded: No degradation

## CC(C)[C@H]1C(=O)NCC(=O)N2CCC[C@H]2C(=O)N[C@@H](Cc2ccccc2)C(=O)N[C@H](C(=O)N[C@@H](Cc2ccc(O)cc2)C(N)=O)CCC(=O)NCC2N[C@@H](C)C(=O)N21 (stereo partly drawn) [H-Ala-Val-Gly-Pro-Phe-Glu(NH-CH2-CHO)-Tyr-NH2]
[2]; from CC(C)[C@H](NC(=O)[C@H](C)N)C(=O)NCC(=O)N1CCC[C@H]1C(=O)N[C@@H](Cc1ccccc1)C(=O)N[C@@H](CCC(=O)NCC=O)C(=O)N[C@@H](Cc1ccc(O)cc1)C(N)=O, 20-membered ring, 8.0 h
  ring closure, conversion by HPLC: 99%

## CC(C)[C@H]1C(=O)NCC(=O)N2CCC[C@H]2C(=O)N[C@@H](Cc2ccccc2)C(=O)N[C@H](C(=O)N[C@@H](Cc2ccc(O)cc2)C(N)=O)CCC(=O)NCC2N[C@@H](CO)C(=O)N21 (stereo partly drawn) [H-Ser-Val-Gly-Pro-Phe-Glu(NH-CH2-CHO)-Tyr-NH2]
[2]; from CC(C)[C@H](NC(=O)[C@@H](N)CO)C(=O)NCC(=O)N1CCC[C@H]1C(=O)N[C@@H](Cc1ccccc1)C(=O)N[C@@H](CCC(=O)NCC=O)C(=O)N[C@@H](Cc1ccc(O)cc1)C(N)=O, 20-membered ring
  ring closure, conversion by HPLC: 100%

## C[C@@H]1NC(=O)[C@@H]2CCCN2C(=O)CN2C(=O)[C@H](Cc3ccccc3)NC12 (stereo partly drawn) [H-Phe-Gly-Pro-Ala-H (C-terminal aldehyde)]
[2]; from C[C@@H](C=O)NC(=O)[C@@H]1CCCN1C(=O)CNC(=O)[C@@H](N)Cc1ccccc1, 9-membered ring, 24.0 h
  ring closure, conversion by HPLC: 0%

## AVGPFEY-NH2 [AVGPFEY]
[3]; HPLC and MS analysis
  time until fully consumed in the presence of chymotrypsin: 90 min
[3]
  remaining at 5 min, 1.5 mM: 82.9%
  remaining at 0.25 h, 1.5 mM: 66.3%
  remaining at 0.5 h, 1.5 mM: 38.6%
  remaining at 0.75 h, 1.5 mM: 20.2%
  remaining at 1 h, 1.5 mM: 10.9%
  remaining at 1.5 h, 1.5 mM: 7.7%
  remaining at 2 h, 1.5 mM: 0%
  remaining at 8 h, 1.5 mM: 0%
  enzyme degradation studies, peptide at time point: 100%
[3]; chymotrypsin in Tris buffer, pH 7.5, HPLC and MS analysis, read-out: half-life in the presence of chymotrypsin
  half-life at 1.5 mM: 20 min

## C[C@@H]1NC2[C@H](C)NC(=O)[C@@H]3CCCN3C(=O)CNC(=O)[C@H](Cc3ccccc3)N2C1=O (stereo partly drawn) [H-Ala-Phe-Gly-Pro-Ala-H (C-terminal aldehyde)]
[2]; from C[C@H](N)C(=O)N[C@@H](Cc1ccccc1)C(=O)NCC(=O)N1CCC[C@H]1C(=O)N[C@@H](C)C=O, 12-membered ring
  ring closure, conversion by HPLC: 71%

## NCCCC[C@H](NC(=O)[C@@H]1CCC(=O)NCC2N[C@@H](CC(N)=O)C(=O)N2[C@@H](Cc2ccccc2)C(=O)N2CCC[C@H]2C(=O)N[C@@H](Cc2ccccc2)C(=O)N1)C(N)=O (stereo partly drawn) [H-Asn-Phe-Pro-Phe-Glu(NH-CH2-CHO)-Lys-NH2]
[2]; from NCCCC[C@H](NC(=O)[C@H](CCC(=O)NCC=O)NC(=O)[C@H](Cc1ccccc1)NC(=O)[C@@H]1CCCN1C(=O)[C@H](Cc1ccccc1)NC(=O)[C@@H](N)CC(N)=O)C(N)=O, 17-membered ring
  ring closure, conversion by HPLC: 70%

## CC(C)[C@H]1C(=O)NCC(=O)N2CCC[C@H]2C(=O)N[C@@H](Cc2ccccc2)C(=O)N[C@H](C(=O)N[C@@H](Cc2ccc(O)cc2)C(N)=O)CCCCNC(=O)CCC2(C)N[C@@H](C)C(=O)N12 (stereo partly drawn) [H-Ala-Val-Gly-Pro-Phe-Lys(levulinoyl)-Tyr-NH2]
[2]; from CC(=O)CCC(=O)NCCCC[C@H](NC(=O)[C@H](Cc1ccccc1)NC(=O)[C@@H]1CCCN1C(=O)CNC(=O)[C@@H](NC(=O)[C@H](C)N)C(C)C)C(=O)N[C@@H](Cc1ccc(O)cc1)C(N)=O, 23-membered ring
  ring closure, conversion by HPLC: 36%

## CC(C)[C@H]1C(=O)NCC(=O)N2CCC[C@H]2C(=O)N[C@@H](Cc2ccccc2)C(=O)N[C@H](C(=O)N[C@@H](Cc2ccc(O)cc2)C(N)=O)CCC(=O)NC[C@@H]2N[C@@H](C)C(=O)N21 [2a, cyc(Ala-Val-Gly-Pro-Phe-Glu)Tyr]
[3]
  remaining at 5 min, 1.5 mM: 100%
  remaining at 0.25 h, 1.5 mM: 100%
  remaining at 0.5 h, 1.5 mM: 100%
  remaining at 0.75 h, 1.5 mM: 100%
  remaining at 1 h, 1.5 mM: 100%
  remaining at 1.5 h, 1.5 mM: 100%
  remaining at 2 h, 1.5 mM: 100%
  remaining at 8 h, 1.5 mM: 91.9%
  enzyme degradation studies, peptide at time point: 100%
[4]
  metabolised at 24 h, 1.5 mM: 20%

## CC(C)[C@H]1C(=O)NCC(=O)N2CCC[C@H]2C(=O)N[C@@H](Cc2ccccc2)C(=O)N[C@H](C(=O)N[C@@H](Cc2ccc(O)cc2)C(N)=O)CCC(=O)NCC2N[C@@H](CC(N)=O)C(=O)N21 (stereo partly drawn) [H-Asn-Val-Gly-Pro-Phe-Glu(NH-CH2-CHO)-Tyr-NH2]
[2]; from CC(C)[C@H](NC(=O)[C@@H](N)CC(N)=O)C(=O)NCC(=O)N1CCC[C@H]1C(=O)N[C@@H](Cc1ccccc1)C(=O)N[C@@H](CCC(=O)NCC=O)C(=O)N[C@@H](Cc1ccc(O)cc1)C(N)=O, 20-membered ring, 16.0 h
  ring closure, conversion by HPLC: 85%

## CC(C)[C@H]1C(=O)NCC(=O)N2CCC[C@H]2C(=O)N[C@@H](Cc2ccccc2)C(=O)N[C@H](C(=O)N[C@@H](Cc2ccc(O)cc2)C(N)=O)CCC(=O)NCC2N[C@@H](CCCCN)C(=O)N21 (stereo partly drawn) [H-Lys-Val-Gly-Pro-Phe-Glu(NH-CH2-CHO)-Tyr-NH2]
[2]; from CC(C)[C@H](NC(=O)[C@@H](N)CCCCN)C(=O)NCC(=O)N1CCC[C@H]1C(=O)N[C@@H](Cc1ccccc1)C(=O)N[C@@H](CCC(=O)NCC=O)C(=O)N[C@@H](Cc1ccc(O)cc1)C(N)=O, 20-membered ring
  ring closure, conversion by HPLC: 84%

## C[C@@H]1N=CCNC(=O)CC[C@@H](C(=O)N[C@@H](Cc2ccc(O)cc2)C(N)=O)NC(=O)[C@H](Cc2ccccc2)NC(=O)[C@H](C)NC(=O)CNC(=O)[C@@H]2CCCN2C1=O [H-Ala-Pro-Gly-Ala-Phe-Glu(NH-CH2-CHO)-Tyr-NH2]
[2]; from C[C@H](N)C(=O)N1CCC[C@H]1C(=O)NCC(=O)N[C@@H](C)C(=O)N[C@@H](Cc1ccccc1)C(=O)N[C@@H](CCC(=O)NCC=O)C(=O)N[C@@H](Cc1ccc(O)cc1)C(N)=O, 20-membered ring
  ring closure, conversion by HPLC: 0%
